The source of these data is patent US6824990B1, “Methods of detecting and modulating oligomerization of G protein-coupled receptors” (priority 1999, dated 2004).

The target in experiment [1] is T1, Ste2Δtail-CFP and Ste2Δtail-YFP (Saccharomyces cerevisiae, UniProt D6VTK4).
T1 construct: CFP and YFP were joined 8 amino acids (position 304) beyond transmembrane domain VII of the α-factor receptor; expressed in transfected cells; host or cells: S. cerevisiae KBY58 (ste2Δ), single copy plasmids, STE2 promoter
The experiment in a line: FRET in purified plasma membrane fractions. The class given is biochemical, S. cerevisiae. The procedure:
Yeast cells expressed tailless α-factor receptors fused to CFP or YFP (Ste2-CFP or -YFP) and/or glucose transporters fused to YFP (Hxt1-YFP), as indicated. Untagged α-factor receptors (Ste2) or glucose transporters (Hxt1) were overexpressed where indicated. Intact cells (panels a-g) or plasma membrane fractions (panels h-i) were excited at the λmax of CFP (440 nm) and fluorescence emission was detected by scanning fluorometry. Fluorescence emission due to FRET (FRET) was determined as: (emission spectrum of cells co-expressing CFP and YFP fusion proteins)—(emission spectrum of cells expressing CFP fusion alone)—(emission spectrum of cells expressing YFP fusion alone). The efficiency of FRET (panel e) was determined as: (integrated FRET curve)/(integrated emission curve obtained upon direct excitation of YFP at 490 nm). In panels f, g and i, only the FRET emission curves are shown for experiments performed under the indicated conditions. […]
CFP and YFP were joined 8 amino acids (position 304) beyond transmembrane domain VII of the α-factor receptor (STE2 gene product) and at the immediate C-terminus of a glucose transporter (HXT1 gene product). These fusion proteins were expressed from the STE2 promoter on single copy plasmids with different selectable markers, allowing them to be co-expressed at similar levels as shown by quantitation of CFP and YFP fluorescence. […]

In experiment [2] the test system is Ste2Δtail-CFP and Ste2Δtail-YFP. The experiment in a line: FRET between CFP- and YFP-tagged tailless α-factor receptors in intact yeast cells. Type of experiment: cell-based, S. cerevisiae. As to conditions: cells treated with latrunculin B. The method, then:
(§1) Yeast cells expressed tailless α-factor receptors fused to CFP or YFP (Ste2-CFP or -YFP) and/or glucose transporters fused to YFP (Hxt1-YFP), as indicated. Untagged α-factor receptors (Ste2) or glucose transporters (Hxt1) were overexpressed where indicated. Intact cells (panels a-g) or plasma membrane fractions (panels h-i) were excited at the λmax of CFP (440 nm) and fluorescence emission was detected by scanning fluorometry. Fluorescence emission due to FRET (FRET) was determined as: (emission spectrum of cells co-expressing CFP and YFP fusion proteins)—(emission spectrum of cells expressing CFP fusion alone)—(emission spectrum of cells expressing YFP fusion alone). The efficiency of FRET (panel e) was determined as: (integrated FRET curve)/(integrated emission curve obtained upon direct excitation of YFP at 490 nm). In panels f, g and i, only the FRET emission curves are shown for experiments performed under the indicated conditions. The results shown in each panel are representative of at least 6 independent experiments, with equivalent results.
(§2) CFP and YFP were joined 8 amino acids (position 304) beyond transmembrane domain VII of the α-factor receptor (STE2 gene product) and at the immediate C-terminus of a glucose transporter (HXT1 gene product). These fusion proteins were expressed from the STE2 promoter on single copy plasmids with different selectable markers, allowing them to be co-expressed at similar levels as shown by quantitation of CFP and YFP fluorescence. Ste2Δtail-CFP and -YFP fusions had normal agonist binding affinities (1-2 nM) and cell surface expression (6-8,000 receptors/cell), as determined by radioligand binding assays. […] Yeast cells (KBY58, a ste2Δ mutant) expressing CFP and/or YFP fusion proteins were grown at 30° C. in selective media to a density of 10^7 cells/ml, washed, suspended in 50 mM PIPES, pH 6.0 and analyzed by scanning fluorometry. […] Cells (10^7 cells in 3 ml) or membranes (20 μg protein in 3 ml) were irradiated at 440 nm to excite CFP and fluorescence emission was recorded from 460-610 nm. […]

The target of experiment [3] is T1, Ste2Δtail-CFP and Ste2Δtail-YFP. The description is as above. Type of experiment: cell-based, S. cerevisiae. The method, then: as §1, §2

T1 sequence (D6VTK4 1-304, stated change not applied): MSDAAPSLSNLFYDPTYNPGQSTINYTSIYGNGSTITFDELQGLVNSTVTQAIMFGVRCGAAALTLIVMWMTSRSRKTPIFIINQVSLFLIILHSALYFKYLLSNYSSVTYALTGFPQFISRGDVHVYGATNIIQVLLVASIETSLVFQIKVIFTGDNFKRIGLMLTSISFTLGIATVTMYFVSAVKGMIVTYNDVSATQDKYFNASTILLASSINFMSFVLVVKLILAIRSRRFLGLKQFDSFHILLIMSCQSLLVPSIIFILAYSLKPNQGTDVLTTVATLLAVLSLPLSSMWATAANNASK

Regarding `Nc1nc2c(ncn2[C@@H]2O[C@H](COP(=O)(O)OP(=O)(O)OP(O)(O)=S)[C@@H](O)[C@H]2O)c(=O)[nH]1` [GTP-γS], the “apparent efficiency of FRET” value in experiment [1] (5 μM agonist and 50 μM GTP-γS (activated and uncoupled), indistinguishable from inactive, n=11) is listed as 20%±2%. For the same compound, in experiment [1] (given membrane preparation, GTP-γS 50 μM), the “effect on efficiency of FRET” value is listed as “no effect”.
Regarding `C/C1=C/C(=O)O[C@@H]2C[C@@H](CC[C@H](C)/C=C\CC1)O[C@@](O)([C@@H]1CSC(=O)N1)C2` [latrunculin B], the “FRET when the actin cytoskeleton was disassembled” value in experiment [2] is listed as “FRET was detected”.
On to desTrp1,Ala3,Nle12-α-factor, for which the “effect on efficiency of FRET” value in experiment [3] (given transformant, 1 nM-5 μM, 1-20 min after addition) is given as “no effect”. The “apparent efficiency of FRET” value in experiment [3] (treated cells, sub-saturating to saturating ligand concentrations, indistinguishable from control cells, n=6) was 18%±1.
